Source: patent publication US12649750B2, “Macrocyclic compounds, compositions, and methods of using thereof” (Sionna Therapeutics Inc., priority 2022, dated 2026)

Key:
NBD1 = target: T1, NBD1 (Homo sapiens, UniProt P13569); experiment: Aggregation analysis using differential static light scattering (DSLS), thermal stability of NBD1 (ΔTagg); format: binding; conditions: ΔTagg versus DMSO control, NBD1 0.2 mg/ml
T1 construct: Purified recombinant NBD1 was produced using previously described methods; made in house
T1 sequence (P13569 423-646 limits assumed): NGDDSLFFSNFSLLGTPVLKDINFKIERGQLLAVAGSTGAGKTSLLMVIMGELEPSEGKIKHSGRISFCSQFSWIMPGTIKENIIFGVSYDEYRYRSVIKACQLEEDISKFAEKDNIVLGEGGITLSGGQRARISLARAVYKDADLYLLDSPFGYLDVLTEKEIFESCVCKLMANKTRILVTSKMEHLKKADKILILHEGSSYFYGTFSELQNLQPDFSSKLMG
Summary of the method: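 NBD1 0.2 mg/ml, S200 buffer (50 mM Tris-HCl, 150 mM NaCl, 5 mM MgCl2, 2 mM ATP, 2 mM DTT, pH7.6) + 1% glycerol; cpd in DMSO; oil overlay. Ramp 25→70° C. at 1° C./min, DSLS images every 0.5° C. ΔTagg = Tagg (inflection) − mean DMSO Tagg.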

CFTR = target: T2, CFTR (Homo sapiens, UniProt P13569, DEL508-508); experiment: TECC24 AUC fold over DMSO @10 μM, CFTR-mediated transepithelial chloride transport in CF-HBE cells; format: cell-based; conditions: test agent AUC divided by DMSO vehicle AUC, primary CF-HBE cells, ΔF508 homozygous donor, 48 hours incubation
T2 construct: Primary human bronchial epithelial cells from a ΔF508 homozygous CF donor; host or cells: primary human bronchial epithelial cells (CF-HBE), ΔF508 homozygous donor
T2 sequence (P13569 with tags, fused parts or gaps DEL508-508): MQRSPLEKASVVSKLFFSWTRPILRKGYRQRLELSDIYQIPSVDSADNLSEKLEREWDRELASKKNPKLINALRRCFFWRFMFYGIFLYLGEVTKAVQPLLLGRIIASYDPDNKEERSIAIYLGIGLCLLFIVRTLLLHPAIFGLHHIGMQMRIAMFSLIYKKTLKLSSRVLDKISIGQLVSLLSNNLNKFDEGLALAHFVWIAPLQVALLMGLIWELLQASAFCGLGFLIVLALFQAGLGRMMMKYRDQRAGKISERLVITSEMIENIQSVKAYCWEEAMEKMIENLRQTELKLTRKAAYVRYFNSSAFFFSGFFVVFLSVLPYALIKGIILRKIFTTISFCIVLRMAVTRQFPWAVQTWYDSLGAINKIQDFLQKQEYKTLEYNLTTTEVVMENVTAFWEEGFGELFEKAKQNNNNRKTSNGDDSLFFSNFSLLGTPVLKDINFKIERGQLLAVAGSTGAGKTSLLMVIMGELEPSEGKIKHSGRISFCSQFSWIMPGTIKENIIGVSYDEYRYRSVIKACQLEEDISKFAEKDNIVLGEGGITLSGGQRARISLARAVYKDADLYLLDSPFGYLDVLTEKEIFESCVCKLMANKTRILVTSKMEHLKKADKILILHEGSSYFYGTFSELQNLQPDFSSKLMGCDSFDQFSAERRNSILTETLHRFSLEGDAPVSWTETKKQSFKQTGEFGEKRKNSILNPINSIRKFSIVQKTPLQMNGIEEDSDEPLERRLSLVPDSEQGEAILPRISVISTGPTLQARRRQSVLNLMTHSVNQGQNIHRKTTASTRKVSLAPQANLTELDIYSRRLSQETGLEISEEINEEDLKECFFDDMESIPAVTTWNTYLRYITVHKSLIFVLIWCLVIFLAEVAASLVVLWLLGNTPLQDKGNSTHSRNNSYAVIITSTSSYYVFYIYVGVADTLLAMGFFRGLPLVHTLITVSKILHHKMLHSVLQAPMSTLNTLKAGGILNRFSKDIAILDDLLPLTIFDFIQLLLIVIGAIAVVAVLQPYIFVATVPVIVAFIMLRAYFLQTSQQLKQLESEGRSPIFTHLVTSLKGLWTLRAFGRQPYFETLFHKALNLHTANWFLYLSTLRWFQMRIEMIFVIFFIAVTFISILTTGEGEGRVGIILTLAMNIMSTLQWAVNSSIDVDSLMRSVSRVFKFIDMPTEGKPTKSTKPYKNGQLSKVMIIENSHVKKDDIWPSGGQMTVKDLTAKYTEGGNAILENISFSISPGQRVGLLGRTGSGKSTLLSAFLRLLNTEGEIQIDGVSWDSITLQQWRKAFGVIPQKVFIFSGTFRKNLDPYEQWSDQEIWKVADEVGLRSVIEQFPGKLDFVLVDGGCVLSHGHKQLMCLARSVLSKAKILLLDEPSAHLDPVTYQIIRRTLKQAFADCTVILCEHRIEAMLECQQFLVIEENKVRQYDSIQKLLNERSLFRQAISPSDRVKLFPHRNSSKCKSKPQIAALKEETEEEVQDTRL
Summary of the method: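 Value is ratio of test-agent to DMSO AUC of equivalent transepithelial Cl− current, integrated from forskolin (10 μM) stimulation to CFTR inhibitor-172 (20 μM) block, with benzamil 10 μM present. CF-HBE (ΔF508/ΔF508) cultures had 48 h compound exposure at 10 μM, 36.5° C before recording.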

| Structure (SMILES) | DSLS 3D (100 μM ΔT) (NBD1) | TECC (AUC, 10 μM) (CFTR) |
| --- | --- | --- |
| C[C@@H](Cc1cccc([C@@]2(C)CCCC(C)(C)CS(=O)(=O)CCc3c(c(F)c(F)c4[nH]ccc34)Sc3ccnc(c3)-c3nc2nn3C)c1)C(=O)O [Compound 268, (2S)-3-[3-[(6R)-21,22-Difluoro-3,6,10,10-tetramethyl-12,12-dioxo-12λ6,24-dithia-3,4,19,28,30-pentazapentacyclo[23.3.1.12,5.015,23.016,20]triaconta-1(29),2(30),4,15,17,20,22,25,27-nonaen-6-yl]phenyl]-2-methyl-propanoic Acid] | C (a value greater than 10 °C and less than or equal to 25 °C is marked “C”) | B (a value between 12-20 is marked “B”) |
| C[C@H](Cc1cccc([C@@]2(C)CCCC(C)(C)CS(=O)(=O)CCc3c(c(F)c(F)c4[nH]ccc34)Sc3ccnc(c3)-c3nc2nn3C)c1)C(=O)O [Compound 270, (2R)-3-[3-[(6R)-21,22-difluoro-3,6,10,10-tetramethyl-12,12-dioxo-12λ6,24-dithia-3,4,19,28,30-pentazapentacyclo[23.3.1.12,5.015,23.016,20]triaconta-1(29),2(30),4,15,17,20,22,25,27-nonaen-6-yl]phenyl]-2-methyl-propanoic Acid] | C (a value greater than 10 °C and less than or equal to 25 °C is marked “C”) | B (a value between 12-20 is marked “B”) |
| Cn1nc2nc1-c1cc(ccn1)Sc1c(F)cc3[nH]ccc3c1CCS(=O)(=O)CC(C)(C)CCC[C@]2(C)c1cccc(CC2(C(=O)O)CC2)c1 [Compound 272, 1-[[3-[(6R)-22-Fluoro-3,6,10,10-tetramethyl-12,12-dioxo-12λ6,24-dithia-3,4,19,28,30-pentazapentacyclo[23.3.1.12,5.015,23.016,20]triaconta-1(29),2(30),4,15,17,20,22,25,27-nonaen-6-yl]phenyl]methyl]cyclopropanecarboxylic Acid] | C (a value greater than 10 °C and less than or equal to 25 °C is marked “C”) | C (a value between 20 and 80 is marked “C”) |
| Cn1nc2nc1-c1cc(ccn1)Sc1c(F)cc3[nH]ccc3c1CCS(=O)(=O)CC(C)(C)CCC[C@]2(C)c1cccc(CC(C)(C)C(=O)O)c1 [Compound 273, 3-[3-[(6R)-22-Fluoro-3,6,10,10-tetramethyl-12,12-dioxo-12λ6,24-dithia-3,4,19,28,30-pentazapentacyclo[23.3.1.12,5.015,23.016,20]triaconta-1(29),2(30),4,15,17,20,22,25,27-nonaen-6-yl]phenyl]-2,2-dimethyl-propanoic Acid] | C (a value greater than 10 °C and less than or equal to 25 °C is marked “C”) | B (a value between 12-20 is marked “B”) |
| Cn1nc2nc1-c1cc(ccn1)Sc1c(F)c(F)c3[nH]ccc3c1CCS(=O)(=O)CC(C)(C)CCC[C@]2(C)c1cccc(CC(C)(C)C(=O)O)c1 [Compound 275, 3-[3-[(6R)-21,22-Difluoro-3,6,10,10-tetramethyl-12,12-dioxo-12λ6,24-dithia-3,4,19,28,30-pentazapentacyclo[23.3.1.12,5.015,23.016,20]triaconta-1(29),2(30),4,15,17,20,22,25,27-nonaen-6-yl]phenyl]-2,2-dimethyl-propanoic Acid] | C (a value greater than 10 °C and less than or equal to 25 °C is marked “C”) | C (a value between 20 and 80 is marked “C”) |
| Cn1nc2nc1-c1cc(ccn1)Sc1c(F)c(F)c3[nH]ccc3c1CCS(=O)(=O)CC(C)(C)CCC[C@]2(C)c1cccc(CCC(=O)O)c1 [Compound 276, 3-[3-[(6R)-21,22-difluoro-3,6,10,10-tetramethyl-12,12-dioxo-12λ6,24-dithia-3,4,19,28,30-pentazapentacyclo[23.3.1.12,5.015,23.016,20]triaconta-1(29),2(30),4,15,17,20,22,25,27-nonaen-6-yl]phenyl]propanoic Acid] | C (a value greater than 10 °C and less than or equal to 25 °C is marked “C”) | B (a value between 12-20 is marked “B”) |
| C[C@@H](Cc1cccc([C@@]2(C)CCCC(C)(C)CS(=O)(=O)CCc3c(c(F)cc4[nH]ccc34)Sc3ccnc(c3)-c3nc2nn3C)c1F)C(=O)O [Compound 277, (2S)-3-[2-fluoro-3-[(6R)-22-fluoro-3,6,10,10-tetramethyl-12,12-dioxo-12λ6,24-dithia-3,4,19,28,30-pentazapentacyclo[23.3.1.12,5.015,23.016,20]triaconta-1(29),2(30),4,15,17,20,22,25,27-nonaen-6-yl]phenyl]-2-methyl-propanoic acid] | C (a value greater than 10 °C and less than or equal to 25 °C is marked “C”) | A (a TECC value less than 12 is marked “A”) |
| Cn1nc2nc1-c1cc(ccn1)[S+]([O-])c1c(F)cc3[nH]ccc3c1CCS(=O)(=O)CC(C)(C)CCC[C@]2(C)c1cccc(CC(C)(C)C(=O)O)c1 (stereo partly drawn) [Compound 278, 3-[3-[(6R)-22-fluoro-3,6,10,10-tetramethyl-12,12,24-trioxo-12λ6,24λ4-dithia-3,4,19,28,30-pentazapentacyclo[23.3.1.12,5.015,23.016,20]triaconta-1(29),2(30),4,15,17,20,22,25,27-nonaen-6-yl]phenyl]-2,2-dimethyl-propanoic Acid] | C (a value greater than 10 °C and less than or equal to 25 °C is marked “C”) | C (a value between 20 and 80 is marked “C”) |
| Cn1nc2nc1-c1cc(ccc1F)Sc1c(F)c(F)c3[nH]ccc3c1CCS(=O)(=O)CC(C)(C)CCC[C@]2(C)c1cccc(CC(C)(C)C(=O)O)c1 [Compound 279, 2,2-Dimethyl-3-[3-[(6R)-21,22,28-trifluoro-3,6,10,10-tetramethyl-12,12-dioxo-12λ6,24-dithia-3,4,19,30-tetrazapentacyclo[23.3.1.12,5.015,23.016,20]triaconta-1(29),2(30),4,15,17,20,22,25,27-nonaen-6-yl]phenyl]propanoic Acid] | C (a value greater than 10 °C and less than or equal to 25 °C is marked “C”) | C (a value between 20 and 80 is marked “C”) |
| Cn1nc2nc1-c1cc(ccc1F)[S+]([O-])c1c(F)c(F)c3[nH]ccc3c1CCS(=O)(=O)CC(C)(C)CCC[C@]2(C)c1cccc(CC(C)(C)C(=O)O)c1 (stereo partly drawn) [Compound 280, 2,2-dimethyl-3-[3-[(6R)-21,22,28-trifluoro-3,6,10,10-tetramethyl-12,12,24-trioxo-12λ6,24λ4-dithia-3,4,19,30-tetrazapentacyclo[23.3.1.12,5.015,23.016,20]triaconta-1(29),2(30),4,15,17,20,22,25,27-nonaen-6-yl]phenyl]propanoic Acid] | C (a value greater than 10 °C and less than or equal to 25 °C is marked “C”) | C (a value between 20 and 80 is marked “C”) |
| Cn1nc2nc1-c1cc(ccn1)Sc1c(F)c(F)c3[nH]ccc3c1CCS(=O)(=O)CC(C)(C)CCC[C@]2(C)c1cccc(C[C@@H](O)CO)c1 [Compound 282, (2R)-3-[3-[(6R)-21,22-difluoro-3,6,10,10-tetramethyl-12,12-dioxo-12λ6,24-dithia-3,4,19,28,30-pentazapentacyclo[23.3.1.12,5.015,23.016,20]triaconta-1(29),2(30),4,15,17,20,22,25,27-nonaen-6-yl]phenyl]propane-1,2-diol] | C (a value greater than 10 °C and less than or equal to 25 °C is marked “C”) | C (a value between 20 and 80 is marked “C”) |
| C[C@@H](Cc1cccc([C@@]2(C)CCCC(C)(C)CS(=O)(=O)CCc3c(c(F)cc4[nH]ccc34)[S+]([O-])c3ccnc(c3)-c3nc2nn3C)c1F)C(=O)O (stereo partly drawn) [Compound 283, (2S)-3-[2-fluoro-3-[(6R)-22-fluoro-3,6,10,10-tetramethyl-12,12,24-trioxo-12λ6,24λ4-dithia-3,4,19,28,30-pentazapentacyclo[23.3.1.12,5.015,23.016,20]triaconta-1(29),2(30),4,15,17,20,22,25,27-nonaen-6-yl]phenyl]-2-methyl-propanoic Acid] | C (a value greater than 10 °C and less than or equal to 25 °C is marked “C”) | C (a value between 20 and 80 is marked “C”) |
| Cn1nc2nc1-c1cc(ccc1F)[S+]([O-])c1c(F)cc3[nH]ccc3c1CCS(=O)(=O)CC(C)(C)CCC[C@]2(C)c1cccc(C[C@H](O)CO)c1 (stereo partly drawn) [Compound 286, (2S)-3-[3-[(6R)-22,28-difluoro-3,6,10,10-tetramethyl-12,12,24-trioxo-12λ6,24λ4-dithia-3,4,19,30-tetrazapentacyclo[23.3.1.12,5.015,23.016,20]triaconta-1(29),2(30),4,15,17,20,22,25,27-nonaen-6-yl]phenyl]propane-1,2-diol] | C (a value greater than 10 °C and less than or equal to 25 °C is marked “C”) | C (a value between 20 and 80 is marked “C”) |
| Cn1nc2nc1-c1cc(ccc1F)Sc1c(F)cc3[nH]ccc3c1CCS(=O)(=O)CC(C)(C)CCC[C@]2(C)c1cccc(C[C@H](O)CO)c1 [Compound 287, (2S)-3-[3-[(6R)-22,28-difluoro-3,6,10,10-tetramethyl-12,12-dioxo-12λ6,24-dithia-3,4,19,30-tetrazapentacyclo[23.3.1.12,5.015,23.016,20]triaconta-1(29),2(30),4,15,17,20,22,25,27-nonaen-6-yl]phenyl]propane-1,2-diol] | C (a value greater than 10 °C and less than or equal to 25 °C is marked “C”) | C (a value between 20 and 80 is marked “C”) |
